What all share (assay type): functional, organism-based
Test [1] relates to Simian rotavirus. Nature of the test: Inhibitory concentration against Simian rotavirus SA-11 strain. The note with it: Rotavirus A.
Test [2] has as its system Simian rotavirus. Nature of the test: Inhibitory concentration against Simian rotavirus SA-11 strain; No inhibition.
For test [3], the system named is Rotavirus. Nature of the test: Inhibitory concentration against human rotavirus MO strain; No inhibition.
Test [4] concerns Rotavirus. Nature of the test: Inhibitory concentration against human rotavirus MO strain.

Each structure is given as a SMILES string.

The values below come from ChEMBL document CHEMBL1130183, “Synthesis of a novel sialic acid derivative (sialylphospholipid) as an antirotaviral agent” (J Med Chem, 1997).

Usually IC50 stands for the concentration that gives 50% inhibition. A higher IC50 goes with lower potency. On to `CC(=O)NC1C(O)CC(O)(C(=O)O)OC1C(O)C(O)CO` (stereo not given), for which, in the test with Simian rotavirus [1], the IC50 turned out to be 4280 µM.
`CCCCCCCCCCCCCCCCCC(=O)OCC(COP(=O)([O-])OCC[N+](C)(C)C)OC(=O)CCCCCCCCCCCCCCCCC` (stereo not given): the IC50 result in the test with Simian rotavirus [2] and in the test on Rotavirus [3] was “Not Active” throughout.
As for `CCCCCCCCCCCCCCCCCC(=O)OCC(COP(=O)(O)OCCCCCCCCOC1(C(=O)O)CC(O)C(NC(C)=O)C([C@H](O)[C@H](O)CO)O1)OC(=O)CCCCCCCCCCCCCCCCC` (stereo not given in full), the figures for the IC50 in the test on Rotavirus [4] and in the test with Simian rotavirus [1] were 16.1 µM and 4.35 µM, respectively.
